Laboratory results published in patent US9073880B2, “2-(2-phenylethenyl) 1,3-benzodiazepine derivatives useful for the treatment of cancer” (Yissum Research Development Company of the Hebrew …, priority 2010, dated 2015).

Legend:
[1] = tested on: Human ovary cancer A2780 cells; test: Cell proliferation, A2780 (Example 2); format: cell-based; conditions: 72 hours, 0.1% DMSO, methylene blue
Method: (§1) Human ovary cancer A2780 cells lines were seeded at a density of 5000 cells/well, human melanoma A375 cells were plated at a density of 2,500 cells/well, human colon carcinoma HCT15 cells were plated at a density of 3,000 cells/well, human prostate carcinoma PC3 cells were plated at a density of 1,500 cells/well, human breast carcinoma MCF7 cells were plated at a density of 5,000 cells/well, human breast carcinoma MDA MB 468 cells were plated at a density of 6,000 cells/well, human myeloma U266, RPMI8226 and CAG cells were plated at a density of 10,000 cells/well. All cells were plated in 96-well plates in 90 μl growth medium containing 10% FCS, 100 units/ml penicillin and 100 μg/ml streptomycin. Compound 3 was added a day later in […] of 1% DMSO in DDW to obtain final concentrations of 0, 0.1, 0.3, 1, 3, and 10 μM. The final concentration of DMSO (0.1% DMSO) was kept constant in all samples. […] The optical density values were read at 630 nm in ELISA plate reader. Non-adhered cells were exposed to WST-1 reagent for 5 hours following 72 hours treatment with the inhibitors, and optical density values were read at 630 nm in ELISA plate reader. The data was analyzed in Microsoft Excel, using the vehicle control as 100% proliferation. […]

[2] = tested on: human breast carcinoma MDA MB 468 cells; test: Cell proliferation, MDA MB 468 (Example 2); format: cell-based; conditions: MDA-468, breast cancer, 72 hours, 0.1% DMSO
Method: as §1

[3] = tested on: human myeloma RPMI8226 cells; test: Cell proliferation, RPMI8226 (Example 2); format: cell-based; conditions: RPMI-8226, RPMI8226, multiple myeloma, 72 hours, 0.1% DMSO, WST-1
Method: as §1

[4] = tested on: Akt/PKB pathway; test: IGF1-induced Akt/PKB activation in A375 cells (Example 5); format: cell-based, human
Method: (§2) The effect of compound 5 on IRS1 & IRS2 levels and its effect on IGF1-induced Akt/PKB activation and apoptosis in melanoma A375 cells were tested. Cells were seeded in 6-well plates (150,000 A375 cells/well) and 24 hours later medium was replaced by serum-free medium (RPMI supplemented with 100 units/ml penicillin and 100 μg/ml streptomycin), […], and then stimulated for 5 minutes with 50 ng/ml IGF-1, washed twice with PBS and lysed by boiling sample buffer (10% glycerol, 50 mM Tris-HCl, pH 6.8, 3% SDS, and 5% β-mercaptoethanol). Equal amounts of protein per lane were separated by 8% SDS-PAGE and transferred to a nitrocellulose membrane (Sartorius AG). To detect the inhibition of the Akt/PKB activation, phosphorylated proteins were immunoblotted with anti-phospho(T308)Akt (pT308-PKB) and anti-phospho-Tuberin/TSC2 (pTuberin) antibodies. To visualize cell death induced by compound 5, the intact and the cleaved PARP were immunoblotted with anti-PARP antibody. The changes in the levels of IRS1 and IRS2 were detected with specific antibodies. Detection was performed with horseradish peroxidase-conjugated secondary antibody using the ECL system. Blots were then stripped of antibodies, blocked with TBST with 5% low fat milk and re-probed with antibodies detecting both the phosphorylated and the non-phosphorylated Akt/PKB. […]

[5] = tested on: IRS1 & IRS2; test: IRS1 and IRS2 levels in A375 cells (Example 5); format: cell-based, human
Method: as §2

[6] = 5 μM for 4 hr, washed, 24 hr after washout, FIG. 6C

SMILES	IC50 [1]	IC50 [2]	IC50 [3]	IGF1-induced activation of the Akt/PKB pathway ([4]; 3 μM, 48 hr, 50 ng/ml IGF-1 5 minutes, FIG. 6B)	IGF1-induced activation of PKB/Akt after washout [4, 6]	IRS1 and IRS2 levels ([5]; 3 μM, 48 hr, FIG. 6B)	levels of IRS1 & IRS2 after washout [5, 6]
O=c1c(O)cc2cnc(/C=C/c3cc(O)c(O)c(Br)c3)sc-2c1O [Compound 3]	300 nM	3800 nM	2000 nM	–	–	–	–
O=c1c(O)cc2cnc(/C=C/c3ccc(O)c(O)c3Br)sc-2c1O [Compound 5]	–	–	–	blocked the IGF1-induced activation of the Akt/PKB pathway	blocked	induced a decrease in IRS1 and IRS2 levels	remained low
